Like-named read-outs stand apart in the source and are kept apart here. One block for each molecule: values may come before it.
Key:
[1] = tested on: human T-lymphocyte cells (CEM); experiment: Antiproliferative effect on CEM cells; assay type: cell-based; settings: read-out: IC50 CEM
[2] = tested on: murine leukemia cells (L1210); experiment: Antiproliferative effect on L1210 cells; assay type: cell-based
[3] = tested on: human cervix carcinoma cells (HeLa); experiment: Antiproliferative effect on HeLa cells; assay type: cell-based; settings: read-out: IC50 HeLa
[4] = Differential nuclear staining; assay type: cell-based; settings: human
[5] = tested on: CCRF-CEM (Acute Lymphoblastic leukemia); experiment: Differential nuclear staining; assay type: cell-based; settings: Homo sapiens, CCRF-CEM, read-out: CC50 (death of 50% of the cells)
[6] = Differential nuclear staining; assay type: cell-based; settings: human, Hs27 non-cancerous fibroblast cells
[7] = tested on: L1210, CEM and HeLa cells; experiment: Cytotoxicity screening over L1210, CEM and HeLa; assay type: cell-based; settings: read-out: IC50 (range over the cell lines tested), L1210, CEM and HeLa together
[8] = Differential nuclear staining; assay type: cell-based; settings: human; remark: listed apart in the source
[9] = tested on: Jurkat (Acute T Cell Leukemia); experiment: Differential nuclear staining; assay type: cell-based; settings: Homo sapiens, Jurkat
Jurkat cells [10] = experiment: Annexin V-FITC/PI assay; assay type: cell-based, human; settings: 7g at CC50 (2.36 μM) and CC100 (4.72 μM), vs vehicle control
Jurkat cells [11] = experiment: Mitochondrial depolarization assay; assay type: cell-based, human; settings: JC-1, flow cytometry, 5 h
Jurkat cells [12] = experiment: Cell cycle analysis; assay type: cell-based, human
[13] = tested on: caspase-3 in Jurkat cells; experiment: Caspase-3 activation assay; assay type: cell-based, human; settings: CC50 (2.36 μM) and CC100 (4.72 μM), 7 h, vs controls
[14] = read-out: IC50 L1210, L1210 cells, mean ± SEM (n=3)
[15] = read-out: CC50 (death of 50% of the cells)
[16] = read-out: CC50 (range for compounds 7g and 8b)
[17] = Mus musculus, L1210, read-out: IC50 L1210
[18] = cells treated with the CC50, 48 h

IC50 [2, 14]: 90 ± 24 µM
IC50 ([3]; HeLa cells, mean ± SEM (n=3)): 70 ± 4 µM
Structure (SMILES): COc1ccc(Cc2nn3cc(-c4cc5ccccc5oc4=O)nc3s2)cc1 [Compound 5h]
IC50 ([1]; CEM cells, mean ± SEM (n=3)): 5 ± 3.3 µM

IC50 ([3]; Homo sapiens, HeLa): > 250 µM
Structure (SMILES): c1ccc([C@H]2CN3CCSC3=N2)cc1 [Levamisole, reference compound]
IC50 ([1]; Homo sapiens, CCRF-CEM): > 250 µM

Structure (SMILES): COc1ccc(Cc2nn3c(C=O)c(-c4ccc(Cl)cc4)nc3s2)cc1 [Compound 8b, 6-(4-chlorophenyl)-2-(4-methoxybenzyl)imidazo[2,1-b][1,3,4]thiadiazole-5-carbaldehyde]
selectivity ratio [4]: 0.65
CC50 [5]: 3.62 ± 0.26 µM
CC50 at 72 h [6]: 2.36 ± 0.03 µM
IC50 [7]: 0.94 to 1.3 µM
IC50 ([1]; Homo sapiens, CCRF-CEM): 0.94 ± 0.12 µM
selectivity ratio [8]: 1.43
CC50 [9, 15]: 1.65 ± 0.19 µM
CC50 [9, 16]: 1.65 to 4.73 µM
IC50 [2, 17]: 1.1 ± 0.2 µM
IC50 ([3]; Homo sapiens, HeLa): 1.3 ± 0.2 µM

Structure (SMILES): N[C@@H](Cc1ccc(N(CCCl)CCCl)cc1)C(=O)O [Melphalan, reference compound]
IC50 ([1]; Homo sapiens, CCRF-CEM): 1.4 ± 0.4 µM
IC50 [2, 14]: 2.13 ± 0.02 µM

Structure (SMILES): COc1ccc(Cc2nn3c(SC#N)c(-c4cc5ccccc5oc4=O)nc3s2)cc1 [Compound 7g, 2-(4-methoxybenzyl)-6-(2-oxo-2H-chromen-3-yl)imidazo[2,1-b][1,3,4]thiadiazol-5-yl thiocyanate]
phosphatidylserine externalization (Jurkat cells [10]): inducing phosphatidylserine externalization in a dose-response manner
selectivity ratio [4]: 6.65
CC50 [5]: 4.73 ± 0.22 µM
CC50 at 72 h [6]: 31.4 ± 0.74 µM
IC50 [7]: 0.78 to 1.6 µM
IC50 ([1]; Homo sapiens, CCRF-CEM): 0.79 ± 0.35 µM
selectivity ratio [8]: 13.3
CC50 [9, 15]: 2.36 ± 0.1 µM
CC50 [9, 16]: 1.65 to 4.73 µM
mitochondrial membrane depolarization (Jurkat cells [11]): not causing mitochondrial membrane depolarization
IC50 [2, 17]: 1.6 ± 0.2 µM
IC50 ([3]; Homo sapiens, HeLa): 0.78 ± 0.13 µM
sub-G0/G1 subpopulation (DNA fragmentation) (Jurkat cells [12]; 7g at CC50 (2.36 μM) and CC100 (4.72 μM), 48 h): increase in sub-G0/G1 subpopulation
cell population in G2-M phase (Jurkat cells [12]; 48 h): increase of the cell population in the G2-M phase
cell population in S phase (Jurkat cells [12]; [18]): increase of cell population in the S phase
cell subpopulation in G0-G1 phase (Jurkat cells [12]; [18]): decrease of cell subpopulation in the G0-G1 phase
caspase-3 activation [13]: induced statistically significant activation of caspase-3

Reference: PMC8140528 (Chemistry & biodiversity, 2021)
